{
  "source": "patent US9737502B2",
  "about": "“Calebin A for hepatic steatosis” (SAMI LABS LIMITED, priority 2011, dated 2017)",
  "key": {"IL-1 beta": {"tested_on": "IL-1 beta", "test": "Serum IL-1 beta in LPS-injected mice after 6 days oral treatment (ELISA)", "assay_type": "in vivo, Swiss albino mice", "settings": "graded doses, then LPS 1 mg/kg i.v., serum 90 min after LPS", "method": "(§1) The present inventors also adduce study data on the ability of Calebin A to reduce expression of Extracellular TNF-α, IL-1 beta [FIG. 6] and IL-6 [FIG. 7] in serum from treated mice (in-vivo models). Swiss albino male mice aged 6-8 weeks were maintained at 22±2° C. under 12/12 h light dark cycle. Mice received oral treatment of test drugs at graded doses (w/v) for 6 days, followed by intravenous injection of 1 mg/kg of LPS according to the method described by Brieva A, Guerrero A, Alonso-Lebrero J L and Pivel J P. 2001. Immunoferon, a glycoconjugate of natural origin, inhibits LPS-induced TNF-α production and inflammatory responses. International Immunopharmacology 1, 1979-1987. Six mice were employed in each group and experiments were performed in triplicates. TNF-α, IL-1 beta and IL-6 production was evaluated by a commercial ELISA kits (R&D Systems) in serum from treated mice, 90 min after LPS injection. Rolipram at 30 mg/kg was used as standard drug."}, "IL-6": {"tested_on": "IL-6", "test": "Serum IL-6 in LPS-injected mice after 6 days oral treatment (ELISA)", "assay_type": "in vivo, Swiss albino mice", "settings": "graded doses, then LPS 1 mg/kg i.v., serum 90 min after LPS", "method": "as §1"}, "[1]": {"test": "Study 2: body weight and liver weight in high fat diet induced obese mice", "assay_type": "in vivo, C57 mice", "settings": "for LIVER WEIGHT: male group, Day 57, High fat diet Control 1.60 ± 0.35", "excerpt": "The animals were fed ad libitum with AMRUT Laboratory Animal Feed manufactured by Pranav Agro Industries Limited, Sangli, Maharastra throughout the acclimatization. Open Source Diet D12450B diet (with 10 kcal % Fat) and Open Source Diet D12492 High fat diet (with 60 kcal % Fat) manufactured by Research Diet Inc, USA procured from Indus Marketing, Hyderabad, Andhra Pradesh, INDIA was used for induction of obesity and the main study.\nThe animals were divided into 5 groups viz., Group 1, 2, 3, 4 and 5 consisting of 10 animals (5 male and 5 female) each.\nThe G1 Control group animals were fed with normal control diet feed D12450B containing 10 kcal % fat and the G2 to G5 group animals were fed with high fat diet feed D12492 containing 60 kcal % fat during the induction of obesity and during main study.\nThe main study was started after the induction of obesity. The 3 doses of Calebin A was administered to animals from Day 29 daily consecutively for a period of 28 days. The feeding of diets continued in the main study in a similar way as performed in induction of obesity. The G1 Control and G2 High fat diet control group animals were administered with 0.5% CMC (Carboxy Methyl Cellulose) while other group animals received test item from Day 29 to Day 56 of the study period. The dose volume of administration was maintained according to the weekly body weight of individual animals. The total duration of the study was 61 days (5 days Acclimatization period+28 days Induction of obesity+28 days Main study).\nIndividual animal body weights were recorded on the day of receipt on Day 1 and weekly (±1 day) thereafter during the study period.\nFurther, after completion of the study period (Day 57) the animals were humanely sacrificed by exposure to excess CO2 in gas chamber and organ weights were noted. The brain, thymus, liver, adrenals, kidneys (paired), spleen, heart and ovaries/testes (paired) from all animals were trimmed off any adherent tissue, as appropriate and weighed wet as soon as possible to avoid drying. While in general, there was no statistically significant difference in organ weights in males and females, organ specific improvements in weight, example for liver in the male group was observable (See TABLE X). […] It may be noted that Behnke, A. R. 1953. Lean body mass. A.M.A. Arch. Int. Med. 91, 585 indicates liver as an index of lean body mass promotion and H. F. Kraybill et al, J ANIM SCI 1954, 13:548-555 indicate that other visceral organs may also be equally predictive of lean body mass promotion. It is quite possible that statistical significance in terms of sustainable increase in organ weights without indications of toxicity may be achieved with a larger sample size (more number of tested animals) over extended testing periods."}},
  "note": "Marks after values point to notes of the source that are not given here.",
  "data": [
    {"smiles": "COc1cc(/C=C/C(=O)COC(=O)/C=C/c2ccc(O)c(OC)c2)ccc1O", "note": "[Calebin A]", "values": [
      {"measurement": "expression of IL-1 beta in serum", "setting": "IL-1 beta", "result": "effective in reducing"},
      {"measurement": "expression of IL-6 in serum", "setting": "IL-6", "result": "effective in reducing"},
      {"measurement": "BODY WEIGHT", "setting": "[1]; females, G3 5 mg/kg + High fat diet, Day 1 (obesity induction, before dosing)", "result": "22.36 ± 0.65", "unit": "grams"},
      {"measurement": "BODY WEIGHT", "setting": "[1]; females, G3 5 mg/kg + High fat diet, Day 8 (obesity induction, before dosing)", "result": "23.18 ± 0.79", "unit": "grams"},
      {"measurement": "BODY WEIGHT", "setting": "[1]; females, G3 5 mg/kg + High fat diet, Day 15 (obesity induction, before dosing)", "result": "24.36 ± 0.87", "unit": "grams"},
      {"measurement": "BODY WEIGHT", "setting": "[1]; females, G3 5 mg/kg + High fat diet, Day 22 (obesity induction, before dosing)", "result": "25.66 ± 0.48", "unit": "grams"},
      {"measurement": "BODY WEIGHT", "setting": "[1]; females, G3 5 mg/kg + High fat diet, Day 29 (start of daily dosing)", "result": "27.40*^a ± grams"},
      {"measurement": "BODY WEIGHT", "setting": "[1]; females, G3 5 mg/kg + High fat diet, Day 36 (dosing Day 29-56)", "result": "28.18**^a ± grams"},
      {"measurement": "BODY WEIGHT", "setting": "[1]; females, G3 5 mg/kg + High fat diet, Day 43 (dosing Day 29-56)", "result": "28.46*^a,**^b ± grams"},
      {"measurement": "BODY WEIGHT", "setting": "[1]; females, G3 5 mg/kg + High fat diet, Day 50 (dosing Day 29-56)", "result": "28.20***^b ± grams"},
      {"measurement": "BODY WEIGHT", "setting": "[1]; females, G3 5 mg/kg + High fat diet, Day 56 (dosing Day 29-56)", "result": "28.12***^b ± grams"},
      {"measurement": "BODY WEIGHT", "setting": "[1]; females, G4 10 mg/kg + High fat diet, Day 1 (obesity induction, before dosing)", "result": "23.16 ± 0.99", "unit": "grams"},
      {"measurement": "BODY WEIGHT", "setting": "[1]; females, G4 10 mg/kg + High fat diet, Day 8 (obesity induction, before dosing)", "result": "24.16 ± 1.29", "unit": "grams"},
      {"measurement": "BODY WEIGHT", "setting": "[1]; females, G4 10 mg/kg + High fat diet, Day 15 (obesity induction, before dosing)", "result": "25.62 ± 1.26", "unit": "grams"},
      {"measurement": "BODY WEIGHT", "setting": "[1]; females, G4 10 mg/kg + High fat diet, Day 22 (obesity induction, before dosing)", "result": "26.76 ± 1.27", "unit": "grams"},
      {"measurement": "BODY WEIGHT", "setting": "[1]; females, G4 10 mg/kg + High fat diet, Day 29 (start of daily dosing)", "result": "28.46***^a ± grams"},
      {"measurement": "BODY WEIGHT", "setting": "[1]; females, G4 10 mg/kg + High fat diet, Day 36 (dosing Day 29-56)", "result": "28.64***^a ± grams"},
      {"measurement": "BODY WEIGHT", "setting": "[1]; females, G4 10 mg/kg + High fat diet, Day 43 (dosing Day 29-56)", "result": "28.16*^a,***^b ± grams"},
      {"measurement": "BODY WEIGHT", "setting": "[1]; females, G4 10 mg/kg + High fat diet, Day 50 (dosing Day 29-56)", "result": "27.54***^b ± grams"},
      {"measurement": "BODY WEIGHT", "setting": "[1]; females, G4 10 mg/kg + High fat diet, Day 56 (dosing Day 29-56)", "result": "27.04***^b ± grams"},
      {"measurement": "BODY WEIGHT", "setting": "[1]; females, G5 20 mg/kg + High fat diet, Day 1 (obesity induction, before dosing)", "result": "23.52 ± 1.10", "unit": "grams"},
      {"measurement": "BODY WEIGHT", "setting": "[1]; females, G5 20 mg/kg + High fat diet, Day 8 (obesity induction, before dosing)", "result": "24.66 ± 1.24", "unit": "grams"},
      {"measurement": "BODY WEIGHT", "setting": "[1]; females, G5 20 mg/kg + High fat diet, Day 15 (obesity induction, before dosing)", "result": "26.26 ^a ± 1.05 ^ grams"},
      {"measurement": "BODY WEIGHT", "setting": "[1]; females, G5 20 mg/kg + High fat diet, Day 22 (obesity induction, before dosing)", "result": "27.26 ^a ± 1.25 ^ grams"},
      {"measurement": "BODY WEIGHT", "setting": "[1]; females, G5 20 mg/kg + High fat diet, Day 29 (start of daily dosing)", "result": "28.74***^a ± grams"},
      {"measurement": "BODY WEIGHT", "setting": "[1]; females, G5 20 mg/kg + High fat diet, Day 36 (dosing Day 29-56)", "result": "28.40**^a ± grams"},
      {"measurement": "BODY WEIGHT", "setting": "[1]; females, G5 20 mg/kg + High fat diet, Day 43 (dosing Day 29-56)", "result": "27.80***^b ± grams"},
      {"measurement": "BODY WEIGHT", "setting": "[1]; females, G5 20 mg/kg + High fat diet, Day 50 (dosing Day 29-56)", "result": "27.44***^b ± grams"},
      {"measurement": "BODY WEIGHT", "setting": "[1]; females, G5 20 mg/kg + High fat diet, Day 56 (dosing Day 29-56)", "result": "27.10***^b ± grams"},
      {"measurement": "effect on body weights of high fat diet induced obese animals", "setting": "[1]; male and female C57 animals, 5, 10 and 20 mg/kg body weight", "result": "had an effect in decreasing the body weights"},
      {"measurement": "LIVER WEIGHT", "setting": "[1]; G3 5 mg/kg + High fat diet", "result": "1.41 ± 0.17", "unit": "g"},
      {"measurement": "LIVER WEIGHT", "setting": "[1]; G4 10 mg/kg + High fat diet", "result": "1.25 ± 0.17", "unit": "g"},
      {"measurement": "LIVER WEIGHT", "setting": "[1]; G5 20 mg/kg + High fat diet", "result": "1.79 ± 0.19", "unit": "g"},
      {"measurement": "BODY WEIGHT", "setting": "[1]; males, G3 5 mg/kg + High fat diet, Day 1 (obesity induction, before dosing)", "result": "25.02 ± 1.45", "unit": "grams"},
      {"measurement": "BODY WEIGHT", "setting": "[1]; males, G3 5 mg/kg + High fat diet, Day 8 (obesity induction, before dosing)", "result": "25.78 ± 1.14", "unit": "grams"}
    ]}
  ]
}
